# Data reported in patent publication US20230181614A1, “ADMINISTRATION OF CITICOLINE TO IMPROVE COGNITIVE PERFORMANCE, ATTENTIONAL PERFORMANCE, AND MOTOR FUNCTION” (KYOWA HAKKO BIO CO., LTD., priority 2014, published 2023).
# Test system: Healthy subjects, ages 13-18
# Assay: General Questionnaire
# Type: in vivo, human
# Text: Study participants were screened by telephone prior to study enrollment. Healthy subjects, ages 13-18, with no significant medical conditions and no history of co-morbid psychiatric disorder, current Axis I or II diagnosis, or previous participation in a pharmacotherapeutic trial, were selected. Use of any psychotropic medication or any previous head injury resulting in loss of consciousness for 5 or more minutes were used as exclusion criteria. While no participant met criteria for a neuropsychiatric disorder at enrollment, clinical assessments were still completed throughout the study to evaluate changes in mood state. In addition, self-reports of sleep habits, lifestyle, and exercise routines were also administered at baseline as well as at each study visit to assess changes in health habits during study participation. Following the completion of Visit 1 assessment, participants were given their 28-day supply of citicoline (250 mg or 500 mg) or placebo, which was randomly assigned. They were instructed to take one capsule a day every day for the next 28 days. Visit 2 occurred fourteen days after Visit 1. At Visit 2, the remaining study pills were counted and participant dosage calendars were checked to ensure compliance with the protocol. Additional neuropsychological measures and clinical assessments were administered during this visit. Participants returned for Visit 3 fourteen days later, on the 28th day of their study participation. The pill bottle and the dosage calendar were collected from each participant. Urine and blood were again obtained. Participants also participated in similar clinical and neuropsychological testing and clinical measures that were given during visit 1. The General Questionnaire and Exercise and Life Style Questionnaire are self-report questionnaires designed to assess a variety of symptoms, behaviors, and self-perceptions, including mood, complexion, exercise, food, and alcohol habits of each of the participants. The General Questionnaire was administered during each of the three study visits; the Exercise and Life Style Questionnaire was administered during each of the three study visits. The General Questionnaire included five summary categories (Vision, Depression, Attention, Sleep, and Complexion) each of which had multiple individual items. Within and between group analyses are reported below for each of the summary categories.
smiles,measurement,setting,value
"C[N+](C)(C)CCOP(=O)(O)OP(=O)([O-])OC[C@H]1O[C@@H](n2ccc(N)nc2=O)[C@H](O)[C@@H]1O [citicoline, Cytidine 5′-diphosphocholine]","General Questionnaire Vision Q2, Mean","250 mg/day, V3 (day 28)",2.44
same,"General Questionnaire Vision Q3, Mean","250 mg/day, V3 (day 28)",1.81
same,"General Questionnaire Vision Total, Mean","250 mg/day, V3 (day 28)",6.59
same,Attention Total V3-V1 Difference Mean,500 mg/day,-5.17
same,Complexion Total V3-V1 Difference Mean,500 mg/day,-1.42
same,Depression Total V3-V1 Difference Mean,500 mg/day,-5.21
same,Sleep Total V3-V1 Difference Mean,500 mg/day,-3.25
same,Vision Total V3-V1 Difference Mean,500 mg/day,-1.50
same,Attention Q13 V1 Mean,"500 mg/day, Visit 1",2.42
same,Attention Q14 V1 Mean,"500 mg/day, Visit 1",2.21
same,Attention Q15 V1 Mean,"500 mg/day, Visit 1",2.63
same,Attention Q16 V1 Mean,"500 mg/day, Visit 1",2.83
same,Attention Q17 V1 Mean,"500 mg/day, Visit 1",1.96
same,Attention Q18 V1 Mean,"500 mg/day, Visit 1",2.79
same,Attention Q19 V1 Mean,"500 mg/day, Visit 1",7.29
same,Attention Q20 V1 Mean,"500 mg/day, Visit 1",2.54
same,Attention Q21 V1 Mean,"500 mg/day, Visit 1",3.25
same,Attention Q22 V1 Mean,"500 mg/day, Visit 1",1.83
same,Attention Q23 V1 Mean,"500 mg/day, Visit 1",2.92
same,Attention Q24 V1 Mean,"500 mg/day, Visit 1",2.46
same,Attention Total V1 Mean,"500 mg/day, Visit 1",35.13
same,Complexion Q33 V1 Mean,"500 mg/day, Visit 1",2.58
same,Complexion Q34 V1 Mean,"500 mg/day, Visit 1",1.88
same,Complexion Total V1 Mean,"500 mg/day, Visit 1",4.46
same,Depression Q4 V1 Mean,"500 mg/day, Visit 1",1.75
same,Depression Q5 V1 Mean,"500 mg/day, Visit 1",2.46
same,Depression Q6 V1 Mean,"500 mg/day, Visit 1",2.21
same,Depression Q7 V1 Mean,"500 mg/day, Visit 1",3.13
same,Depression Q8 V1 Mean,"500 mg/day, Visit 1",1.92
same,Depression Q9 V1 Mean,"500 mg/day, Visit 1",3.04
same,Depression Q10 V1 Mean,"500 mg/day, Visit 1",2.00
same,Depression Q11 V1 Mean,"500 mg/day, Visit 1",2.00
same,Depression Q12 V1 Mean,"500 mg/day, Visit 1",2.04
same,Depression Total V1 Mean,"500 mg/day, Visit 1",20.54
same,Sleep Q25 V1 Mean,"500 mg/day, Visit 1",3.54
same,Sleep Q26 V1 Mean,"500 mg/day, Visit 1",2.54
same,Sleep Q27 V1 Mean,"500 mg/day, Visit 1",2.00
same,Sleep Q28 V1 Mean,"500 mg/day, Visit 1",2.96
same,Sleep Q29 V1 Mean,"500 mg/day, Visit 1",2.00
same,Sleep Q30 V1 Mean,"500 mg/day, Visit 1",2.04
same,Sleep Q31 V1 Mean,"500 mg/day, Visit 1",2.33
same,Sleep Q32 V1 Mean,"500 mg/day, Visit 1",3.54
same,Sleep Total V1 Mean,"500 mg/day, Visit 1",20.83
same,Vision Q1 V1 Mean,"500 mg/day, Visit 1",2.75
same,Vision Q2 V1 Mean,"500 mg/day, Visit 1",2.54
same,Vision Q3 V1 Mean,"500 mg/day, Visit 1",1.71
same,Vision Total V1 Mean,"500 mg/day, Visit 1",7.00
same,Attention Q13 V3 Mean,"500 mg/day, Visit 3",1.96
same,Attention Q14 V3 Mean,"500 mg/day, Visit 3",1.83
same,Attention Q15 V3 Mean,"500 mg/day, Visit 3",1.92
same,Attention Q16 V3 Mean,"500 mg/day, Visit 3",1.92
same,Attention Q17 V3 Mean,"500 mg/day, Visit 3",1.75
same,Attention Q18 V3 Mean,"500 mg/day, Visit 3",1.92
same,Attention Q19 V3 Mean,"500 mg/day, Visit 3",8.42
same,Attention Q20 V3 Mean,"500 mg/day, Visit 3",1.92
same,Attention Q21 V3 Mean,"500 mg/day, Visit 3",2.42
same,Attention Q22 V3 Mean,"500 mg/day, Visit 3",1.63
same,Attention Q23 V3 Mean,"500 mg/day, Visit 3",2.13
same,Attention Q24 V3 Mean,"500 mg/day, Visit 3",2.17
same,Attention Total V3 Mean,"500 mg/day, Visit 3",29.96
same,Complexion Q33 V3 Mean,"500 mg/day, Visit 3",1.75
same,Complexion Q34 V3 Mean,"500 mg/day, Visit 3",1.29
same,Complexion Total V3 Mean,"500 mg/day, Visit 3",3.04
same,Depression Q4 V3 Mean,"500 mg/day, Visit 3",1.58
same,Depression Q5 V3 Mean,"500 mg/day, Visit 3",1.88
same,Depression Q6 V3 Mean,"500 mg/day, Visit 3",1.67
same,Depression Q7 V3 Mean,"500 mg/day, Visit 3",2.25
same,Depression Q8 V3 Mean,"500 mg/day, Visit 3",1.46
same,Depression Q9 V3 Mean,"500 mg/day, Visit 3",2.00
same,Depression Q10 V3 Mean,"500 mg/day, Visit 3",1.54
same,Depression Q11 V3 Mean,"500 mg/day, Visit 3",1.38
same,Depression Q12 V3 Mean,"500 mg/day, Visit 3",1.58
same,Depression Total V3 Mean,"500 mg/day, Visit 3",15.33
same,Sleep Q25 V3 Mean,"500 mg/day, Visit 3",2.50
same,Sleep Q26 V3 Mean,"500 mg/day, Visit 3",1.71
same,Sleep Q27 V3 Mean,"500 mg/day, Visit 3",1.83
same,Sleep Q28 V3 Mean,"500 mg/day, Visit 3",2.29
same,Sleep Q29 V3 Mean,"500 mg/day, Visit 3",1.96
same,Sleep Q30 V3 Mean,"500 mg/day, Visit 3",1.96
same,Sleep Q31 V3 Mean,"500 mg/day, Visit 3",2.21
same,Sleep Q32 V3 Mean,"500 mg/day, Visit 3",3.13
same,Sleep Total V3 Mean,"500 mg/day, Visit 3",17.58
same,Vision Q1 V3 Mean,"500 mg/day, Visit 3",1.92
same,Vision Q2 V3 Mean,"500 mg/day, Visit 3",2.08
same,Vision Q3 V3 Mean,"500 mg/day, Visit 3",1.50
same,Vision Total V3 Mean,"500 mg/day, Visit 3",5.50
